Results taken from patent US12459974B2, “Bicyclic peptide ligands specific for Nectin-4” (priority 2018, dated 2025).
pKd: −log10 of the molar value. Where two headings read alike, the source gives them in different places. *1 amine or outer side, *2 acyl side, *3 side chain or, on linkers, in order; H or OH if unused. Where a SMILES comes first, the peptide text is derived from it. Bridges are numbered along the chain shown (N, C = ends). Roman numbers before positions name the chains, in order. [ ]: non-standard residue; d: D form. The star is where a group is joined. ξ: configuration not given here. TATA = O=C(CC[*:1])N1CN(C(=O)CC[*:2])CN(C(=O)CC[*:3])C1; Dolaproine = CO[C@@H]([C@@H]1CCCN1)[C@@H](C)C(=O)O; X1 = CC[C@H](C)C(C(CC(=O)[*:2])OC)N(C)[*:1]; 1Nal = N[C@@H](Cc1cccc2ccccc12)C(=O)O; X3 = O=C(CCCC(=O)[*:2])NCCC(=O)[*:1]; PABC = O=C(OCc1ccc(N[*:1])cc1)[*:2]; Hyp = O=C(O)[C@@H]1C[C@@H](O)CN1; hArg = N=C(N)NCCCC[C@H](N)C(=O)O; Cit = NC(=O)NCCC[C@H](N)C(=O)O; X2 = CC(N*)[C@@H](O)c1ccccc1; ξNMeV = CNC(C(=O)O)C(C)C; ξV = CC(C)C(N)C(=O)O; Sar = CNCC(=O)O

Experiments:
[1] = tested on: MDA-MB-468 xenograft; assay: Example 4: in vivo efficacy in MDA-MB-468 xenograft (breast cancer model) in Balb/c nude mice; design: species or system Mus Musculus
[2] = tested on: MDA-MB-468 cell line; assay: Example 11: HCS assay, Nectin-4 BDC binding study; assay type: cell-based
Description: HCS assay was used in Nectin-4 BDC binding study. Cells were incubated with test agent and then washed. Detection was by a fluorescent antibody to MMAE.

[3] = tested on: Panc2.13 xenograft; assay: Example 3: in vivo efficacy in Panc2.13 xenograft (pancreatic cancer model) in Balb/c nude mice; design: species or system Mus Musculus
[4] = 3 mpk, qw, iv, day 0 after start of treatment
[5] = 5 mpk, qw, iv, day 0 after start of treatment

Which results are given for `CC[C@H](C)C(C(CC(=O)N1CCC[C@H]1[C@H](OC)[C@@H](C)C(=O)NC(C)[C@@H](O)c1ccccc1)OC)N(C)C(=O)[C@@H](NC(=O)C(C(C)C)N(C)C(=O)OCc1ccc(NC(=O)[C@H](CCCNC(N)=O)NC(=O)C(NC(=O)CCCC(=O)NCCC(=O)N(C)CC(=O)N(C)CC(=O)N(C)CC(=O)N(C)CC(=O)N(C)CC(=O)N(C)CC(=O)N(C)CC(=O)N(C)CC(=O)N(C)CC(=O)N(C)CC(=O)N[C@H]2CSCCC(=O)N3CN4CN(C3)C(=O)CCSC[C@H](NC(=O)[C@@H](CC(=O)O)NC(=O)[C@H](Cc3cccc5ccccc35)NC(=O)[C@@H]3CCCN3C2=O)C(=O)N[C@@H](CCSC)C(=O)N[C@@H](CCCCNC(=N)N)C(=O)N[C@@H](CC(=O)O)C(=O)N[C@@H](Cc2c[nH]c3ccccc23)C(=O)N[C@@H](CO)C(=O)N[C@@H]([C@@H](C)O)C(=O)N2CCC[C@H]2C(=O)N2C[C@H](O)C[C@H]2C(=O)N[C@@H](Cc2c[nH]c3ccccc23)C(=O)N[C@H](C(N)=O)CSCCC4=O)C(C)C)cc1)C(C)C` (stereo partly drawn) [BCY8245, MMAE-PABC-Cit-Val-Glutaryl-BCY8234] (I: [Sar][Sar][Sar][Sar][Sar][Sar][Sar][Sar][Sar][Sar]CP[1Nal][dD]CM[hArg]DWSTP[Hyp]WC-NH2 / II: [ξV][Cit][PABC][ξNMeV]V[X1][Dolaproine]-X2; linker I:11-I:15-I:25 via TATA; linker I:N-II:N via X3)?
Tumor volume ([1]; 3 mpk, biw, iv, day 11): 67 ± 14 mm^3; Tumor volume ([1]; 3 mpk, biw, iv, day 14): 49 ± 11 mm^3; Tumor volume ([1]; 3 mpk, biw, iv, day 16): 45 ± 14 mm^3; Tumor volume ([1]; 3 mpk, biw, iv, day 18): 32 ± 12 mm^3; Tumor volume ([1]; 3 mpk, biw, iv, day 21): 22 ± 4 mm^3; T/C ([1]; 3 mpk, biw, day 21): 4.9%; TGI ([1]; 3 mpk, biw, day 21): 169.8%; Tumor volume ([1]; 3 mpk, biw, day 21, Mean ± SEM (Table 22)): 22 ± 4 mm^3; Tumor volume [1, 4]: 194 ± 12 mm^3; Tumor volume ([1]; 3 mpk, qw, iv, day 2): 192 ± 26 mm^3; Tumor volume ([1]; 3 mpk, qw, iv, day 4): 184 ± 20 mm^3; Tumor volume ([1]; 3 mpk, qw, iv, day 7): 131 ± 20 mm^3; Tumor volume ([1]; 3 mpk, qw, iv, day 9): 113 ± 17 mm^3; Tumor volume ([1]; 3 mpk, qw, iv, day 11): 104 ± 13 mm^3; Tumor volume ([1]; 3 mpk, qw, iv, day 14): 94 ± 25 mm^3; Tumor volume ([1]; 3 mpk, qw, iv, day 16): 81 ± 23 mm^3; Tumor volume ([1]; 3 mpk, qw, iv, day 18): 87 ± 23 mm^3; Tumor volume ([1]; 3 mpk, qw, iv, day 21): 85 ± 31 mm^3; T/C ([1]; 3 mpk, qw, day 21): 18.9%; TGI ([1]; 3 mpk, qw, day 21): 144.2%; Tumor volume ([1]; 3 mpk, qw, day 21, Mean ± SEM (Table 22)): 85 ± 31 mm^3; Tumor volume ([1]; 5 mpk, qw, dosing suspended from day 21, day 23): 35 ± 5 mm^3; Tumor volume ([1]; 5 mpk, qw, dosing suspended from day 21, day 25): 48 ± 5 mm^3; Tumor volume ([1]; 5 mpk, qw, dosing suspended from day 21, day 28): 37 ± 7 mm^3; Tumor volume ([1]; 5 mpk, qw, dosing suspended from day 21, day 32): 28 ± 6 mm^3; Tumor volume ([1]; 5 mpk, qw, dosing suspended from day 21, day 35): 24 ± 4 mm^3; Tumor volume ([1]; 5 mpk, qw, dosing suspended from day 21, day 39): 28 ± 6 mm^3; Tumor volume ([1]; 5 mpk, qw, dosing suspended from day 21, day 42): 26 ± 6 mm^3; Tumor volume [1, 5]: 199 ± 28 mm^3; Tumor volume ([1]; 5 mpk, qw, iv, day 2): 193 ± 11 mm^3; Tumor volume ([1]; 5 mpk, qw, iv, day 4): 135 ± 4 mm^3; Tumor volume ([1]; 5 mpk, qw, iv, day 7): 98 ± 5 mm^3; Tumor volume ([1]; 5 mpk, qw, iv, day 9): 58 ± 5 mm^3; Tumor volume ([1]; 5 mpk, qw, iv, day 11): 49 ± 5 mm^3; Tumor volume ([1]; 5 mpk, qw, iv, day 14): 47 ± 2 mm^3; Tumor volume ([1]; 5 mpk, qw, iv, day 16): 37 ± 4 mm^3; Tumor volume ([1]; 5 mpk, qw, iv, day 18): 35 ± 3 mm^3; Tumor volume ([1]; 5 mpk, qw, iv, day 21): 29 ± 3 mm^3; T/C ([1]; 5 mpk, qw, day 21): 6.6%; TGI ([1]; 5 mpk, qw, day 21): 168.4%; Tumor volume ([1]; 5 mpk, qw, day 21, Mean ± SEM (Table 22)): 29 ± 3 mm^3; anti-tumour activity (in words) ([1]; mouse, in vivo): good anti-tumour activity; Bmax (in words) [2]: lower than for the Nectin-4 ADC; binding affinity on MDA-MB-468 cell line (in words) [2]: single digit nanomolar affinity; Max fluorescent intensity ([2]; MDA-MB-468 cell line, fluorescent antibody to MMAE): 13.34; pKd ([2]; MDA-MB-468 cell line, historical data, read-out: Historical Kd): 8.29; pKd ([2]; MDA-MB-468 cell line, read-out: Kd): 8.45; retention on the cells (in words) ([2]; detection by a fluorescent antibody to MMAE): retained on the cells; TGI ([3]; 3 mg/kg biw, day 14): 79.1%; Tumor volume (TV) ([3]; 3 mg/kg biw, day 14): 231 mm^3; TGI ([3]; 3 mg/kg qw, day 14): 69.2%; Tumor volume (TV) ([3]; 3 mg/kg qw, day 14): 271 mm^3; TGI ([3]; 5 mg/kg qw, day 14): 77.5%; Tumor volume (TV) ([3]; 5 mg/kg qw, day 14): 238 mm^3; Tumor volume ([3]; 3 mpk, biw, iv, day 0 after start of treatment): 148 ± 46 mm^3; Tumor volume ([3]; 3 mpk, biw, iv, day 2): 170 ± 38 mm^3; Tumor volume ([3]; 3 mpk, biw, iv, day 4): 204 ± 57 mm^3; Tumor volume ([3]; 3 mpk, biw, iv, day 7): 216 ± 56 mm^3; Tumor volume ([3]; 3 mpk, biw, iv, day 9): 236 ± 59 mm^3; Tumor volume ([3]; 3 mpk, biw, iv, day 11): 241 ± 60 mm^3; Tumor volume ([3]; 3 mpk, biw, iv, day 14): 231 ± 57 mm^3; T/C ([3]; 3 mpk, biw, day 14): 42.3%; TGI ([3]; 3 mpk, biw, day 14): 79.1%; Tumor volume ([3]; 3 mpk, biw, day 14, Mean ± SEM (Table 19)): 231 ± 57 mm^3; Tumor volume [3, 4]: 149 ± 34 mm^3; Tumor volume ([3]; 3 mpk, qw, iv, day 2): 160 ± 33 mm^3; Tumor volume ([3]; 3 mpk, qw, iv, day 4): 191 ± 39 mm^3; Tumor volume ([3]; 3 mpk, qw, iv, day 7): 215 ± 53 mm^3; Tumor volume ([3]; 3 mpk, qw, iv, day 9): 242 ± 62 mm^3; Tumor volume ([3]; 3 mpk, qw, iv, day 11): 259 ± 59 mm^3; Tumor volume ([3]; 3 mpk, qw, iv, day 14): 271 ± 54 mm^3; T/C ([3]; 3 mpk, qw, day 14): 49.6%; TGI ([3]; 3 mpk, qw, day 14): 69.2%; Tumor volume ([3]; 3 mpk, qw, day 14, Mean ± SEM (Table 19)): 271 ± 54 mm^3; Tumor volume [3, 5]: 149 ± 18 mm^3; Tumor volume ([3]; 5 mpk, qw, iv, day 2): 180 ± 11 mm^3; Tumor volume ([3]; 5 mpk, qw, iv, day 4): 231 ± 33 mm^3; Tumor volume ([3]; 5 mpk, qw, iv, day 7): 242 ± 34 mm^3; Tumor volume ([3]; 5 mpk, qw, iv, day 9): 248 ± 40 mm^3; Tumor volume ([3]; 5 mpk, qw, iv, day 11): 231 ± 37 mm^3; Tumor volume ([3]; 5 mpk, qw, iv, day 14): 238 ± 40 mm^3; T/C ([3]; 5 mpk, qw, day 14): 43.6%; TGI ([3]; 5 mpk, qw, day 14): 77.5%; Tumor volume ([3]; 5 mpk, qw, day 14, Mean ± SEM (Table 19)): 238 ± 40 mm^3; anti-tumour activity (in words) ([3]; mouse, in vivo): good anti-tumour activity
